Assay results reported in patent US20250186469A1, “THERAPEUTIC AGENT FOR OVARIAN CLEAR CELL CARCINOMA” (JSR CORPORATION, priority 2022, published 2025).

How the values were obtained:
[1] = tested on: ovarian clear cell carcinoma organoid CCC19-042; experiment: Drug sensitivity test for immunodeficient mouse transplanted with ovarian clear cell carcinoma organoid; type: in vivo; settings: 1 mg/kg intraperitoneally twice a week from the 7th day after transplantation, versus DMSO vehicle; FIG. 15C
Method: The ovarian clear cell carcinoma organoid CCC19-042 was cultured until it reached a diameter of approximately 50 to 100 μm. The organoid was recovered in a 50 mL tube after removing the culture medium from the plate and then suspending the organoid in a Cell Recovery Solution (Corning, 354235). The solution including the recovered organoid was placed on ice and the Matrigel was depolymerized. After the completion of the reaction, the organoid was washed with a culture medium and re-suspended in the Matrigel so that 1×10^6 cells were present in 100 μL.
The organoid corresponding to 1×10^6 cells was transplanted subcutaneously (left shoulder) in an immunodeficient mouse, and the tumor forming ability was evaluated on the 7th day after the transplantation. In addition, a thinly sliced slide was created from an FFPE section of the tumor and subjected to HE staining and HNF1β immunostaining.
With regard to the immunodeficient mouse transplanted with the ovarian clear cell carcinoma organoid shown in Experimental Example 9, administration, measurement of a weekly body weight, and calculation of a tumor volume were performed from the 7th day after transplantation. […]
The tumor volume was calculated by the following expression.

[2] = tested on: ovarian clear cell carcinoma organoid; experiment: Sensitivity test of ovarian clear cell carcinoma organoid (cell viability by ATP activity); type: cell-based, human; settings: exposed for 3 days at 0.0001 to 10 μM, FIGS. 13, 14, 17
Method: Based on the above-described results of HTDS, the test focused on the proteasome inhibitors that were found with multiple hits among the 9 hit compounds. A proteasome inhibitor (bortezomib, carfilzomib, and ixazomib), a microtubule inhibitor (paclitaxel), and a platinum formulation (cisplatin and carboplatin) were prepared at each of final concentrations of 0.0001 μM, 0.001 µM, 0.01 μM, 0.1 μM, 1 μM, and 10 μM, the ovarian clear cell carcinoma organoid was exposed to each of the concentrations for 3 days, and the cell viability was measured by measuring the ATP activity.
FIGS. 13 and 14 show graphic views of the results of the measured cell viabilities.
For the CDK 1, 2, 5, and 9 inhibitor (dinaciclib) that was hit in the 9 compounds that were hit more in HTDS, the cell viability was measured by measuring an ATP activity in the same manner as in Experimental Example 8.

ovarian cancer organoid = experiment: Sensitivity test of ovarian cancer organoid to PARP inhibitor (cell viability by ATP activity); type: cell-based, human; settings: exposed for 3 days at 0.0001 to 10 μM; each cell line; FIG. 7
Method: A sensitivity test of the ovarian cancer organoid to olaparib was performed. Olaparib which is a kind of PARP inhibitor was prepared at a final concentration of each of 0.0001 μM, 0.001 μM, 0.01 μM, 0.1 μM, 1 μM, and 10 μM, and the ovarian cancer organoid was exposed to olaparib for 3 days at each concentration, and the cell viability was measured by measuring the ATP activity.
The vertical axis indicates the cell viability as a ratio to the control, and the horizontal axis indicates the final concentration (μM) of olaparib.

SMILES	tumor volume [1]	cell viability [2]	cell viability (ratio to the control) (ovarian cancer organoid)
CC(C)C[C@H](NC(=O)[C@H](Cc1ccccc1)NC(=O)c1cnccn1)B(O)O [bortezomib]	decrease in tumor volume	significant decrease in cell viability depending on the concentration	
CC(C)C[C@H](NC(=O)[C@H](CCc1ccccc1)NC(=O)CN1CCOCC1)C(=O)N[C@@H](Cc1ccccc1)C(=O)N[C@@H](CC(C)C)C(=O)[C@@]1(C)CO1 [carfilzomib]		significant decrease in cell viability depending on the concentration	
CC(C)C[C@H](NC(=O)CNC(=O)c1cc(Cl)ccc1Cl)B(O)O [ixazomib]		significant decrease in cell viability depending on the concentration	
CC(=O)O[C@H]1C(=O)[C@@]2(C)[C@H]([C@H](OC(=O)c3ccccc3)[C@]3(O)C[C@H](OC(=O)[C@H](O)[C@@H](NC(=O)c4ccccc4)c4ccccc4)C(C)=C1C3(C)C)[C@]1(OC(C)=O)CO[C@@H]1C[C@@H]2O [paclitaxel]		significant decrease in cell viability depending on the concentration	
O=C(c1cc(Cc2n[nH]c(=O)c3ccccc23)ccc1F)N1CCN(C(=O)C2CC2)CC1 [olaparib]			reduced depending on the concentration
